Source: patent US20200289609A1, “PEPTIDOMIMETIC MACROCYCLES AND USES THEREOF” (Aileron Therapeutics, Inc., priority 2019, published 2020)

Columns and labels:
RKO = test: Cell viability assay (MTT), RKO; format: cell-based; settings: read-out: RKO EC50 (72 h), RKO cells
Description: Row H of the plate contained the controls. Wells H1-H3 received 20 μL of assay media.
Further dilutions were used for potent peptides.
80 µL of assay media was removed from each well. […] Cell viability was analyzed against the DMSO controls.

MDM2 = MDM2 (Homo sapiens, UniProt Q00987); test: Competitive fluorescence polarization assay for MDM2; format: binding
MDM2, sequence (Q00987 1-125): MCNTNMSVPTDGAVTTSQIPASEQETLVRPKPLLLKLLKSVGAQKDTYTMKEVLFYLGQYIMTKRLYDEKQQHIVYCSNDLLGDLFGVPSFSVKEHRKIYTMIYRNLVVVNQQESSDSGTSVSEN
Description: 1 mM of FAM-labeled linear peptide (in 100% DMSO) was diluted to 100 μM with DMSO (dilution 1:10). Then, diluted solution was further diluted from 100 μM to 10 μM with water (dilution 1:10), and diluted again with FP buffer from 10 μM to 40 nM (dilution 1:250). […] The diluted FAM-labeled peptides were kept in the dark until use.
Unlabeled peptide dose plates were prepared with FP buffer starting with 1 μM (final) of the peptide. […] 10 mM of the solution (in 100% DMSO) with DMSO to 5 mM (dilution 1:2); dilution from 5 mM to 500 μM with H2O (dilution 1:10); and dilution with FP buffer from 500 μM to 20 μM (dilution 1:25). […] 10 μl of 10 nM (4×) of FAM-labeled peptide was added into each well, and the wells were incubated for 3 h before being read.

MDMX = biological target: T1, MDMX (Homo sapiens, UniProt O15151); test: Competitive fluorescence polarization assay for MDMX; format: binding
T1 sequence (O15151 1-125): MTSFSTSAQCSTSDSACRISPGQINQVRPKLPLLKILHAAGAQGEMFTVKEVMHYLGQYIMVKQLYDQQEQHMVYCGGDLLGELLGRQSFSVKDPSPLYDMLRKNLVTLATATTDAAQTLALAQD
Description: MDMX (40 kD) was diluted into FP buffer (high-salt buffer 200 mM NaCl, 5 mM CHAPS, pH 7.5) to make a 300 nM (2×) working stock solution. 20 μl of the 300 nM (2×) of protein stock solution was added into each well of 96-well black microplate. 1 mM (in 100% DMSO) of a FAM-labeled linear peptide was diluted with DMSO to a concentration of 100 μM (dilution 1:10). The solution was diluted from 100 μM to 10 μM with water (dilution 1:10), and diluted further with FP buffer from 10 μM to 40 nM (dilution 1:250). […] The diluted FAM-labeled peptide was kept in the dark until use. An unlabeled peptide dose plate was prepared with FP buffer starting with a concentration of 5 μM (final) of a peptide. […] 10 mM (in 100% DMSO) of the solution was diluted with DMSO to prepare a 5 mM (dilution 1:2) solution. The solution was diluted from 5 mM to 500 μM with H2O (dilution 1:10), and diluted further with FP buffer from 500 μM to 20 μM (dilution 1:25). […] 10 μl of the serially diluted unlabeled peptides were added to each well, which was filled with 20 μl of the 300 nM protein solution. 10 μl of the 10 nM (4×) FAM-labeled peptide solution was added into each well, and the wells were incubated for 3 h before reading.

MC38 colon cancer tumors = test: Anti-tumor activity of topotecan with AP-1, MC38 model; format: in vivo, C57BL/6 mice; settings: MC38, topotecan days 1-5, FIG. 17A
Description: (§1) C57BL/6 mice bearing established syngeneic MC38 colon cancer tumors, or nu/nu mice bearing established H69 or H211 xenograft tumors were treated with topotecan on days 1-5 and either AP-1 or vehicle on days 0-4. Median tumor volume and mouse survival was assessed.

H69 xenograft tumors = test: Anti-tumor activity of topotecan with AP-1, H69 model; format: in vivo, nu/nu mice; settings: H69, topotecan days 1-5, FIG. 17B
Description: as §1

H211 xenograft tumors = test: Anti-tumor activity of topotecan with AP-1, H211 model; format: in vivo, nu/nu mice; settings: H211, topotecan days 1-5, FIG. 17C
Description: as §1

gut tissue = test: Topotecan-induced mucositis (gut histopathology); format: in vivo, C57BL/6 mice; settings: Group 3: […] topotecan days 2-6, 10 mice
Description: The effect of a peptidomimetic macrocycle of the disclosure on topotecan-induced mucositis is assessed in a controlled, in vivo study. Four groups of mice (10 mice per group) are involved in the study, and administration of agents occurs over a 6-day treatment period. The first group of mice (Group 1) is treated with a vehicle control on days 2, 3, 4, 5, and 6 of the treatment period. The second group of mice (Group 2) is treated intravenously with 2.4 mg/kg of a peptidomimetic macrocycle on days 1, 2, 3, 4, and 5 of a 6-day treatment period. The third group of mice (Group 3) is treated with 1.5 mg/kg of topotecan on days 2, 3, 4, 5, and 6 of the 6-day treatment period. The fourth group of mice (Group 4) is treated with 2.4 mg/kg of the peptidomimetic macrocycle on days 1, 2, 3, 4, and 5 of the 6-day treatment period and 1.5 mg/kg of topotecan on days 2, 3, 4, 5, and 6 of the 6-day treatment period. Gut samples are then taken from mice on days 7 and 9 post treatment. Histopathology analysis of gut samples is performed to assess hypertrophy/hyperplasia. In some embodiments, all gut samples from mice in Groups 1 and 2 receive a hypertrophy/hyperplasia score of 0. […]
C57BL/6 mice (n=10 per group) were divided into four treatment groups. […] Images and gut tissues and quantification of pathology scores can be seen in FIG. 24A.

Compound: CC(=O)N[C@@H](CC(C)C)C(=O)N[C@H](C(=O)N[C@@H](Cc1ccccc1)C(=O)N[C@]1(C)CCCCCCC=CCCC[C@@](C)(C(=O)N[C@@H](CO)C(=O)N[C@@H](C)C(=O)N[C@@H](C)C(N)=O)NC(=O)[C@H](CC2CCCCC2)NC(=O)[C@H](CCC(N)=O)NC(=O)[C@H](C)NC(=O)[C@H](Cc2c[nH]c3ccccc23)NC(=O)[C@H](Cc2ccc(O)cc2)NC(=O)[C@H](CCC(=O)O)NC1=O)[C@@H](C)O (single isomer, unassigned) [compound 148]
- EC50 (RKO): 1000 to 30000 nM

Compound: CC(=O)N[C@@H](CC(C)C)C(=O)N[C@H](C(=O)N[C@@H](Cc1ccccc1)C(=O)N[C@]1(C)CCCCCCC=CCCC[C@@](C)(C(=O)N[C@@H](CO)C(=O)N[C@@H](C)C(=O)N[C@@H](C)C(N)=O)NC(=O)[C@H](C2CCCC2)NC(=O)[C@H](CCC(N)=O)NC(=O)[C@H](C)NC(=O)[C@H](Cc2c[nH]c3ccccc23)NC(=O)[C@H](Cc2ccc(O)cc2)NC(=O)[C@H](CCC(=O)O)NC1=O)[C@@H](C)O (single isomer, unassigned) [compound 150]
- EC50 (RKO): 1000 to 30000 nM

Compound: CC(=O)N[C@@H](CC(C)C)C(=O)N[C@H](C(=O)N[C@@H](C)C(=O)N[C@]1(C)CCCCCCC=CCCC[C@@](C)(C(=O)N[C@@H](CO)C(=O)N[C@@H](C)C(=O)N[C@@H](C)C(N)=O)NC(=O)[C@H](CC2CCC2)NC(=O)[C@H](CCC(N)=O)NC(=O)[C@H](C)NC(=O)[C@H](Cc2c[nH]c3ccccc23)NC(=O)[C@H](Cc2ccc(O)cc2)NC(=O)[C@H](CCC(=O)O)NC1=O)[C@@H](C)O (single isomer, unassigned) [compound 252]
- IC50 (MDM2): 100 to 1000 nM
- Ki (MDM2): 100 to 1000 nM
- IC50 (MDMX): > 1000 nM
- Ki (MDMX): > 1000 nM

Compound: CC(=O)N[C@@H](CCC(=O)O)C(=O)N[C@H](C(=O)N[C@@H](Cc1ccccc1)C(=O)N[C@]1(C)CCCCCCC=CCCC[C@@](C)(C(=O)N[C@@H](C)C(=O)N[C@@H](C)C(=O)N[C@@H](C)C(=O)N[C@@H](C)C(=O)N[C@@H](C)C(=O)N[C@H](C)C(N)=O)NC(=O)[C@H](CC(C)C)NC(=O)[C@H](CCC(N)=O)NC(=O)[C@H](C)NC(=O)[C@H](Cc2c[nH]c3ccccc23)NC(=O)[C@H](Cc2ccc(O)cc2)NC(=O)[C@H](CCC(=O)O)NC1=O)[C@@H](C)O (single isomer, unassigned) [compound 341]
- EC50 (RKO): 1000 to 30000 nM

Compound: CC(=O)N[C@@H](CC(C)C)C(=O)N[C@H](C(=O)N[C@@H](Cc1ccccc1)C(=O)N[C@]1(C)CCCCCCC=CCCC[C@@](C)(C(=O)N[C@@H](CO)C(=O)N[C@@H](C)C(=O)N[C@@H](C)C(=O)N[C@H](C)C(N)=O)NC(=O)[C@H](CC2CCC2)NC(=O)[C@H](CCC(N)=O)NC(=O)[C@H](C)NC(=O)[C@H](Cc2c[nH]c3ccccc23)NC(=O)[C@H](Cc2ccc(O)cc2)NC(=O)[C@H](CCC(=O)O)NC1=O)[C@@H](C)O (single isomer, unassigned) [compound 353]
- EC50 (RKO): 1000 to 30000 nM

Compound: CC(=O)N[C@@H](C)C(=O)N[C@@H](CC(C)C)C(=O)N[C@H](C(=O)N[C@@H](Cc1ccccc1)C(=O)N[C@]1(C)CCCCCCC=CCCC[C@@](C)(C(=O)N[C@@H](CO)C(=O)N[C@@H](C)C(=O)N[C@@H](C)C(=O)N[C@H](C)C(N)=O)NC(=O)[C@H](CC2CCC2)NC(=O)[C@H](CCC(N)=O)NC(=O)[C@H](C)NC(=O)[C@H](Cc2c[nH]c3ccccc23)NC(=O)[C@H](Cc2ccc(O)cc2)NC(=O)[C@H](CCC(=O)O)NC1=O)[C@@H](C)O (single isomer, unassigned) [compound 355]
- EC50 (RKO): 1000 to 30000 nM

Compound: CC(=O)N[C@@H](C)C(=O)N[C@@H](C)C(=O)N[C@@H](CC(C)C)C(=O)N[C@H](C(=O)N[C@@H](Cc1ccccc1)C(=O)N[C@]1(C)CCCCCCC=CCCC[C@@](C)(C(=O)N[C@@H](CO)C(=O)N[C@@H](C)C(=O)N[C@@H](C)C(=O)N[C@@H](C)C(=O)N[C@H](C)C(N)=O)NC(=O)[C@H](CC2CCC2)NC(=O)[C@H](CCC(N)=O)NC(=O)[C@H](C)NC(=O)[C@H](Cc2c[nH]c3ccccc23)NC(=O)[C@H](Cc2ccc(O)cc2)NC(=O)[C@H](CCC(=O)O)NC1=O)[C@@H](C)O (single isomer, unassigned) [compound 358]
- EC50 (RKO): 1000 to 30000 nM

Compound: CC(=O)N[C@@H](C)C(=O)N[C@@H](C)C(=O)N[C@@H](CC(C)C)C(=O)N[C@H](C(=O)N[C@@H](Cc1ccccc1)C(=O)N[C@]1(C)CCCCCCC=CCCC[C@@](C)(C(=O)N[C@@H](CO)C(=O)N[C@@H](C)C(=O)N[C@@H](C)C(=O)N[C@@H](C)C(=O)N[C@H](C)C(N)=O)NC(=O)[C@H](CC2CCC2)NC(=O)[C@H](CCC(N)=O)NC(=O)[C@H](C)NC(=O)[C@H](Cc2c[nH]c3ccccc23)NC(=O)[C@H](Cc2ccc(O)cc2)NC(=O)[C@H](CCC(=O)O)NC1=O)[C@@H](C)O (single isomer, unassigned) [compound 359]
- EC50 (RKO): 1000 to 30000 nM

Compound: CC[C@H](C)[C@H](NC(=O)[C@H](C)NC(=O)[C@H](C)NC(=O)[C@]1(C)CCCC=CCCCCCC[C@@](C)(NC(=O)[C@H](Cc2ccccc2)NC(=O)[C@@H](NC(=O)[C@H](CC(C)C)NC(=O)CN(C)C)[C@@H](C)O)C(=O)N[C@@H](CCC(=O)O)C(=O)N[C@@H](Cc2ccc(C(=O)O)cc2)C(=O)N[C@@H](Cc2c[nH]c3ccccc23)C(=O)N[C@@H](C)C(=O)N[C@@H](CCC(N)=O)C(=O)N[C@@H](CC2CCC2)C(=O)N1)C(=O)N[C@H](C)C(N)=O (single isomer, unassigned) [compound 440]
- EC50 (RKO): 1000 to 30000 nM

Compound: CCCC[C@H](NC(=O)[C@H](C)NC(=O)[C@H](C)NC(=O)[C@]1(C)CCC/C=C/CCCCCC[C@@](C)(NC(=O)[C@H](Cc2ccccc2)NC(=O)[C@@H](NC(=O)[C@H](CC(C)C)NC(C)=O)[C@@H](C)O)C(=O)N[C@@H](C)C(=O)N[C@@H](Cc2ccc(O)cc2)C(=O)N[C@@](C)(Cc2c[nH]c3ccccc23)C(=O)N[C@@H](C)C(=O)N[C@@H](CCC(N)=O)C(=O)N[C@@H](CC(C)C)C(=O)N1)C(=O)N[C@@H](C)C(N)=O [compound 388]
- EC50 (RKO): 1000 to 30000 nM

Compound: CC(C)C[C@H](NC(=O)CN(C)C)C(=O)N[C@H](C(=O)N[C@@H](Cc1ccccc1)C(=O)N[C@]1(C)CCCCCCC=CCCC[C@@](C)(C(=O)N[C@@H](CO)C(=O)N[C@@H](C)C(=O)N[C@@H](C)C(N)=O)NC(=O)[C@H](CC2CCC2)NC(=O)[C@H](CCC(N)=O)NC(=O)[C@H](C)NC(=O)[C@H](Cc2c[nH]c3ccccc23)NC(=O)[C@H](Cc2ccc(O)cc2)NC(=O)[C@H](CCC(=O)O)NC1=O)[C@@H](C)O [compound 435]
- EC50 (RKO): 1000 to 30000 nM

Compound: CC[C@@]1(O)C(=O)OCc2c1cc1n(c2=O)Cc2cc3c(CN(C)C)c(O)ccc3nc2-1 [topotecan]
- survival (MC38 colon cancer tumors): increased
- tumor volumes (MC38 colon cancer tumors): decreased
- survival (H69 xenograft tumors): increased
- tumor volumes (H69 xenograft tumors): decreased
- survival (H211 xenograft tumors): increased
- tumor volumes (H211 xenograft tumors): decreased
- mice with hyperplasia/hypertrophy score of 3 (gut tissue): about 70%
- mice with hypertrophy/hyperplasia score of 2 (gut tissue): about 30%
